# Patent publication US7781580B2, “Stilbene derivatives as new cancer therapeutic agents” (Virginia Commonwealth University, priority 2007, dated 2010)
# Where a name gives a salt, the structure may show the parent alone. Read-outs that look alike come from different tables or passages of the source.
# What was measured:
# [1] = preliminary toxicity and serum conversion of 5b; assay type: in vivo, mice
# Excerpt: We next tested whether 5b could be converted into stilbene 4a in circulation. […] The in vivo efficacy of 5b and 5c was compared to stilbene 4a in a pilot study using 5 mice in each group.
# [2] = test system: UCI101 ovarian cancer cells (xenograft); test: UCI101 xenograft in nude mice; assay type: in vivo
# Procedure: (§1) (a) In vitro sensitivity of UCI101 cells toward three potential stilbene prodrugs, 5a-c, was tested in 96-well plates using Alamar Blue™ assays to determine cell growth inhibition. […] (b) 5b induces cell cycle change and apoptosis in UCI101 cells. Cells were incubated with 5b at 1, 3, 10 μM for 16 hours followed by PI staining and flow cytometry analysis. A subG0/1 population, representing apoptotic cells, appeared along with a decrease of the G1/G2 ratio after cells were treated with 3 μM 5b. Higher concentration (10 μM) of 5b completely killed cells, as was the case with stilbene 4a at 100 μM. (c) Cells treated with stilbene 4a and 5b were stained with phospho-histone 3B, a mitotic marker. The positive signals of phospho-histone 3B were shown in green and nuclei were stained with DAPI in blue. […] (d) In vivo efficacy of 5b compared with stilbene 4a. Nude mice were injected with UCI101 ovarian cancer cells and treated with 7 doses of 5b,c or stilbene 4a every 2-3 days. Tumor volume was calculated and plotted against days.
# We next tested whether 5b could be converted into stilbene 4a in circulation. […] Blood was collected at 20, 60 and 240 min after injection for spot check of stilbene 4a level in serum. […] The in vivo efficacy of 5b and 5c was compared to stilbene 4a in a pilot study using 5 mice in each group.
# [3] = water solubility of stilbene and carbamate prodrug (salts and free base); assay type: physicochemical; conditions: for solubility: water, 20 °C, 20° C.
# Procedure: Stilbene prodrugs may be made by attaching to a stilbene derivative of interest (e.g. a stilbene derivative with anti-tumor activity), chemical groups (or moieties) that render the stilbene derivative more water soluble than before such a modification is carried out. By “water soluble” we mean that more than 20 mg compound can be fully dissolved in 1 mL of water. Further, the chemical groups that are attached to the stilbene derivative to make the derivative water soluble are labile (i.e. removable) in that, upon exposure to in vitro or in vivo hydrolyzing conditions, the chemical groups are removed or dissociated from the stilbene derivative by hydrolysis, releasing the active, anti-tumor form of the stilbene derivative. The chemical groups which are attached may themselves be biologically active, and are, at least, not biologically injurious to cells or mammals. […] As illustrated, morfolinoethyl-urea, morfolinoethyl-carbamate and triethylene glycol (TEG) groups (5a, 5b, 5c, respectively) may be used for this purpose.
# UCI101 cells [4] = test: immunofluorescent staining of tubulin, UCI101; assay type: cell-based; conditions: CA4 10 nM, stilbene 4a 100 nM, 5b 3 μM; 16 hours
# Excerpt: Nuclei were stained with DAPI.
# MDA-MB231 cells = test: immunofluorescent staining of tubulin, MDA-MB231; assay type: cell-based; conditions: CA4 10 nM, stilbene 4a 100 nM, vincristine 100 nM, 5b 3 μM; 16 hours
# Excerpt: Nuclei were stained with 4′,6-diamidino-2-phenylindole (DAPI). Control cells show the reticular pattern of the microtubule network.
# UCI101 cells [5] = test: cell cycle analysis (propidium iodide, FACScan), UCI101; assay type: cell-based
# Procedure: Cells were stained with propidium iodide and analyzed with FACScan. Both 5b at 3 μM and stilbene 4a at 30 nM induce a subG0/1 population that represents the dead population. At higher concentrations of either compound, nearly all cells are dead.
# as §1, with “Cells were incubated with 5b at 1, 3, 10 μM for 16 hours followed by PI staining and flow cytometry analysis.” left out, “Higher concentration (10 μM) of 5b completely killed cells, as was the case with stilbene 4a at 100 μM.” left out
# UCI101 cells [6] = test: phospho-histone 3B mitotic marker staining; assay type: cell-based
# Procedure: as §1
# The in vitro efficacy of these three compounds was tested in UCI101 cells in 96-well plate format and stained with Alamar blue™, The growth suppression was calculated as was done similarly to other test compounds. […] A dose response was then performed with various concentrations of 5b in vitro. […]
# [7] = test system: UCI101 ovarian cancer cells; test: Alamar Blue cell growth inhibition, UCI101; assay type: cell-based
# Summary of the method: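 UCI101 cells at 50% confluence treated 48 h in triplicate with compound (0–10 μM series) or 0.1% DMSO vehicle as 100% control. Alamar Blue added at 1/10 volume for 2 h; absorbance read at 570 and 600 nm, percent growth inhibition from the manufacturer's formula.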
# [8] = test system: MiaPaCa2 pancreatic cancer cells; test: Alamar Blue cell growth inhibition, MiaPaCa2; assay type: cell-based; conditions: Homo sapiens, MIA PaCa-2; MiaPaCa2
# Procedure: (§2) Various cancer cell lines were grown in 96-well plates for drug sensitivity assays. Once cells achieved 50% confluence, the incubation media was changed to the same cell growth media with different concentrations of the tested compounds or vehicle alone. Cells were then incubated for 48 hours before the cell growth inhibition study. To determine the degree of cell growth inhibition, 1/10 volume of Alamar Blue™ solution was added to each well and optical density (OD) at 570 and 600 nm was determined. The percentage of growth inhibition was calculated according to the manufacturer's formula as follows: The percentage of growth is [(117216×A570)−(80586×A600)]/[(117216×A^o570)−(80586×A^o600)]×100. In this formula, A570 is the absorbance of the treated samples at 570 nm; A600 is the absorbance of the treated samples at 600 nm; A^o570 is the absorbance of the […] samples at 570 nm; and A^o600 is the absorbance of the untreated samples at 600 nm. The two constants, 117216 and 80586, are the extinction coefficients of Alamar Blue™ at 570 and 600 nm respectively. Each concentration was repeated in triplicate to minimize the error.
# (§3) We first tested the cytotoxic effect of various stilbene derivatives for their in vitro efficacy of suppressing tumor cell proliferation. Cells were first plated in 96-well plates at 50% confluence and treated with 0, 0.01, 0.03, 0.1, 0.3, 1.0, 3.0, 10 μM concentrations of stilbene derivatives for 48 hours in triplicate. Alamar Blue™ reagent was added into each well at 1/10 volume and incubated for 2 hours before quantification of the absorbance at 570 and 600 nm.
# [9] = test system: MDA-MB231 breast cancer cells; test: Alamar Blue cell growth inhibition, MDA-MB231; assay type: cell-based; conditions: Homo sapiens, MDA-MB-231; MDA-MB231
# Procedure: Cell growth was measured by Alamar Blue™ staining and the percentage of cell growth inhibition was calculated and compared with control cells that were treated with 0.1% DMSO, the vehicles for the stilbene compounds.
# as §2, §3
# [10] = test system: UCI101 ovarian cancer cells; test: Western blot of signal transduction events, UCI101; assay type: cell-based
# Summary of the method: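 UCI101 cells exposed to 0.1 μM compound for 0, 4, 8, 16 and 36 h, then harvested and analysed by Western blot. Probes covered G2-M regulators Cdc2, Cdc25c and BubR1, plus Akt phosphorylation.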
# animal toxicity of 13a = conditions: 50 mg/kg
# [11] = test system: SKOV3 ovarian cancer cells; test: Alamar Blue cell growth inhibition, SKOV3; assay type: cell-based
# Summary of the method: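 SKOV3 cells at 50% confluence were treated 48 h with compounds, against 0.1% DMSO vehicle controls. Growth was read by Alamar Blue absorbance at 570 and 600 nm, with % growth inhibition from the manufacturer's extinction-coefficient formula. Each concentration was run in triplicate.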
# [12] = test system: SNU423 hepatocellular carcinoma cells; test: Alamar Blue cell growth inhibition, SNU423; assay type: cell-based
# Summary of the method: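 Cells at 50% confluence were treated for 48 h in triplicate with 0-10 μM compound or 0.1% DMSO vehicle. Alamar Blue was added at 1/10 volume for 2 h, and absorbance at 570 and 600 nm gave % growth via the manufacturer's extinction-coefficient formula relative to vehicle controls.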
compound,measurement,setting,value
"COc1cc(/C=C\c2ccc(OC)c(NC(=O)OCCN3CCOCC3)c2)cc(OC)c1 [5b, (Z)-{5-[2-(3,5-Dimethoxy-phenyl)-vinyl]-2-methoxy-phenyl}-carbamic acid 2-morpholin-4-yl-ethyl ester, oxalate salt]",tolerability,[1]; 100 mg/kg by intraperitoneal injection,tolerated well without complication
same,persistence in circulation,[1]; 100 mg/kg ip,stay in circulation longer than stilbene 4a
same,tumor growth versus control mice,[2]; 7 doses every 2-3 days,only compound that achieved statistical significance compared with control mice
same,tumor growth suppression,"[2]; 7 doses every 2-3 days, 5 mice in each group",about 40%
same,mouse weight,"[2]; mouse, in vivo",did not show any significant change
same,water solubility (in words),[3],high solubility
same,solubility,"[3]; HCl salt, read-out: water solubility, x HCl",759000 µg/mL
same,solubility,"[3]; free base, read-out: water solubility, Free base",< 1000 µg/mL
same,solubility,"[3]; oxalate salt, read-out: water solubility, x (COOH)2",5900 µg/mL
same,microtubule pattern,UCI101 cells [4],partial disruption of microtubules
same,microtubule pattern,MDA-MB231 cells,completely disrupted microtubule formation
same,cell death / cell cycle arrest at 1 μM,UCI101 cells [5]; 1 μM,not effective in inducing cell death or cell cycle arrest
same,cell death / cell cycle arrest at 3 μM,UCI101 cells [5]; 3 μM,showed a significant activity
same,cell death / cell cycle arrest at 10 μM,UCI101 cells [5]; 10 μM,nearly all cells have committed to cell death
same,fold less potent than stilbene 4a in vitro,UCI101 cells [5]; 10 μM 5b equivalent to 100 nM stilbene 4a,100
same,cell cycle effect,"UCI101 cells [5]; 4a at 30, 100 nM, 5b at 1, 3, 10 μM",induced similar cell cycle arrest as stilbene 4a
same,concentration inducing a subG0/1 (dead) population,UCI101 cells [5]; 24 hours,3 µM
same,phospho-histone 3B positive cells,UCI101 cells [6],dramatic increase in positive cells
same,fold less potent than stilbene 4a,"[7]; UCI101, from IC50",about 100
same,IC50,"[7]; UCI101, estimated",~3000 nM
"COc1cc(/C=C\c2ccc3c(ccn3C)c2)cc(OC)c1 [13a, (Z)-5-[2-(3,5-Dimethoxy-phenyl)-vinyl]-1-methyl-1H-indole]",IC50,[8],10 nM
same,IC50,[9],10 nM
same,water solubility (in words),[3],poor water solubility
same,phosphorylation of Stat3,[10]; 0.1 μM,more pronounced
same,phosphorylation of Chk1,[10]; 36 hours,do not cause more phosphorylation of Chk1
same,neurotoxicity,animal toxicity of 13a,transient neurotoxicity was observed
same,IC50,"[11]; Homo sapiens, SK-OV-3, SKOV, read-out: IC50",50 to 100 nM
same,effective / active concentration,"[11]; SKOV3, 48 hours",0.1 µM
same,relative potency / activity,"[7]; UCI101, 48 hours",about equal in their potency
same,IC50,"[12]; Homo sapiens, SNU-423, 48 h, read-out: IC50 (50% growth inhibition), SNU423, 48 hours",10 nM
same,"effective concentration, blocking cell proliferation","[12]; SNU423, 48 hours",0.03 µM
